Measured values published in patent publication US20200289667A1, “Targeting Macrophages to Modulate Electrical Conduction in the Heart” (The General Hospital Corporation, priority 2016, published 2020).

Experiments:
Assay type in all cases: in vivo, mouse
[1] = tested on: AV block; experiment: Surface ECG of Cd11b^DTR mice with AV block after intravenous drug administration; details: Cd11b^DTR mice with second and third degree AV block; intravenous (atropine 1 mg/kg, epinephrine 2 mg/kg, isoproterenol 20 mg/kg)
Protocol: (§1) Mice were anesthetized as described above and surface ECG was recorded using subcutaneous electrodes connected to the Animal Bio amplifier and PowerLab station (AD Instruments). The ECG channel was filtered between 0.3 and 1000 Hz and analyzed using LabChart Pro software. Atropine (1 mg/kg), epinephrine (2 mg/kg) or isoproterenol (20 mg/kg) were administered intravenously, and changes were examined before and after injection.

[2] = tested on: AV node macrophages; experiment: Flow cytometric quantification of AV node macrophages after depletion
Protocol: (§2) Mice were put into parabiosis using either C57BL/6 and Cx3cr1^GFP/+ or Cd11b^DTR and Cx3cr1^GFP/+ mice as described previously (12). Tamoxifen was given as a solution in corn oil (Sigma) to Cx3cr1^wt/CreER ChR2^fl/fl or Cx3cr1^wt/CreER Cx43^fl/fl mice by intraperitoneal injection. Animals received 5 doses of 2 mg of tamoxifen with a separation of 24 hours between doses. Cx3cr1^wt/CreER ChR2^wt/fl and Cx3cr1^wt/CreER Cx43^fl/fl mice were analyzed 2 and 7 days post-tamoxifen treatment, respectively. Macrophage depletion was achieved by a single intraperitoneal injection of diphtheria toxin (DT, 25 ng/g body weight) in Cd11b^DTR mice (12). C57BL/6 mice injected with DT were used as controls. Clodronate liposomes were kindly provided by Dr. Kory J. Lavine and contained 18 mg of clodronate per mL of liposomes. Depletion studies were performed by intraperitoneal injection of 100 μL/30 g mouse (13).
Peripheral blood for flow cytometric analysis was collected by retro-orbital bleeding using heparinized capillary tubes (BD Diagnostics) and red blood cells were lysed with 1× red blood cell lysis buffer (BioLegend). To determine electrolyte levels, blood was collected by cardiac puncture and electrolytes were measured on serum with EasyLyte PLUS analyzer (Medica). For organ harvest, mice were perfused through the LV with 10 mL of ice-cold PBS. […]

[3] = tested on: AV node conduction; experiment: AV node conduction by ECG telemetry, surface ECG and EP study after macrophage depletion
Protocol: as §2
EP studies were performed under general anaesthesia induced by administering 5% isoflurane driven by an oxygen source into an induction chamber. Anaesthesia was subsequently maintained with 1-2% isoflurane in 95% O2. For EP study, an octapolar catheter (EPR-800) was inserted into the right jugular vein and positioned in the right atrium and ventricle. Programmed electrical stimulation was performed using a standard protocol with 120 ms and 100 ms drive trains and single extrastimuli to measure function of the AV node and the conduction properties of atrial and ventricular tissue. The Wenckebach cycle length was measured by progressively faster atrial pacing rates. Retrograde (VA) conduction cycle length was measured by progressively slower ventricular pacing rates. Sinus node function was determined by measuring the sinus node recovery time (SNRT) following 30 seconds of pacing at three cycle lengths (120, 100 and 80 ms). SNRT was divided by the basic cycle length to adjust for the intrinsic heart rate.
Continuous ambulatory ECG telemetry was performed by implanting an ETA-F10 transmitter during general anaesthesia with isoflurane. The transmitter was implanted in the abdomen and the leads were tunneled subcutaneously to the upper right and lower left chest resulting in a lead II position. Telemetry data was recorded continuously via a receiver placed under the mouse cage. Data analysis was performed using LabChart Pro software.
as §1

## CN1[C@@H]2CC[C@H]1C[C@@H](OC(=O)C(CO)c1ccccc1)C2 (stereo partly drawn) [atropine]
[1]
  attenuation of AV block: did not attenuate

## diphtheria toxin [DT]
[2]; C57BL/6 control mice, three days after DT injection
  number of AV node macrophages: did not alter
[2]; Cd11b^DTR mice, single intraperitoneal dose of 25 ng/g body weight
  time of maximum depletion of AV node macrophages: three
[3]; C57BL/6 control mice, surface ECG
  induction of AV block: did not induce AV block
[3]; Cd11b^DTR mice, ECG telemetry, after DT injection
  progression of AV block: progressively evolved into second and third degree AV block
[3]; Cd11b^DTR mice, ECG telemetry, single dose 25 ng/g
  onset of first degree AV block (all mice): one
[3]; Cx3cr1^GFP/+ mice joined in parabiosis with Cd11b^DTR mice, surface ECG three days after DT
  induction of AV block: did not induce AV block

## CC(C)NCC(O)c1ccc(O)c(O)c1 (stereo not drawn) [isoproterenol]
[1]
  attenuation of AV block: did not attenuate

## CNC[C@H](O)c1ccc(O)c(O)c1 [epinephrine]
[1]
  attenuation of AV block: did not attenuate
